Read-outs that look alike come from different tables or passages of the source.
Experiments:
[1] = Metabolic stability in liver microsomes, rat; assay type: in vitro ADME
Method: (§1) In this study, the metabolic stability of IDP-73152 in microsomes from mice, rats, dogs, and humans, as well as rat hepatocytes, was determined. For a microsomal incubation study, the incubation mixtures, containing mouse, rat, dog, or human liver microsomes at a protein concentration of 0.5 mg/mL, 3.3 mM MgCl2, and 1.3 mM NADPH, in a 100 mM potassium phosphate buffer (pH 7.4), were preincubated for 3 min at 37 °C. In parallel, a control incubation mixture (i.e., identical composition to that of the incubation mixture without NADPH) was also prepared for comparison. The reaction was initiated by the addition of a 10 × solution of IDP-73152 (final concentration in mixtures of 1 μM) to the incubation mixtures or the control incubation mixtures. The mixtures were incubated in a shaking water bath (37 °C, 90 rpm). Aliquots (30 μL) were collected at 0, 15, 30, and 45 min from the mixture and the reaction was terminated by the addition of a 4-fold volume of ice-cold acetonitrile to the sample. The mixture was then vortexed for 5 min and centrifuged for 10 min at 10,000× g. The supernatant was collected and stored at -80 °C until the analysis. For the hepatocyte incubation study, rat hepatocytes were freshly prepared using the two-step collagenase perfusion method with slight modifications. After the isolation, cell viability during the preparation process was first determined by a trypan blue exclusion assay prior to the stability study. The preparation was considered adequate for subsequent studies if the viability was greater than 80%. When appropriate, the hepatocytes were resuspended in Williams' media E containing 10% fetal bovine serum, 1% penicillin-streptomycin, and 0.01% insulin-transferrin-selenium (i.e., 10 mg/mL insulin, 5.5 mg/mL transferrin, and 5 mg/mL selenium) at pH 7.4. The reaction was carried out with the hepatocyte suspension prepared at 1 × 10^6 cells/mL (0.5 mL) and initiated by the addition of equal volume of IDP-73152 solution (i.e., final concentration of the compound at 1 μM in 0.5 × 10^6 cells/mL of hepatocytes) to the hepatocyte suspension. […] Assuming first-order disappearance kinetics, the slope k of the logarithmically transformed IDP-73152 concentration in the sample versus time plot was determined by the linear regression analysis of the data. The total intrinsic clearance (CLint,mic, μL/min/mg protein for microsomal incubation study and CLint,hep, μL/min/million cells for hepatocytes incubation study) was then calculated using the following equations:(4) CLint, mic=k×Volume of incubation medium (μL)/Protein in incubation medium (mg) (5) CLint,hep=k×Volume of incubation (μL)/Number of cells in incubation (×10^6) The unbound intrinsic clearance, with respect to the whole liver ([…]), was then estimated for the two cases. […]

[2] = PK study in rats (intravenous and oral); assay type: in vivo, Male Sprague Dawley rats; details: for Vd / clearance: iv, 10 mg/kg; for Vd: read-out: Vss; for clearance: read-out: CLp (converted); for Tmax: 20 mg/kg
Method: The in vivo experimental protocol was approved by the Institutional Animal Care and Use Committee of Research Laboratory at Ildong pharmaceutical Co., Ltd. (Ref. No.: IDL-PDF-001 and 09005-11004). Animals were acclimatized to the laboratory conditions for at least 1 week before the experiments and were kept in the standardized conditions (20–25 °C, 55 ± 5% humidity, and a 12 h light/dark cycle). The animals fasted overnight prior to drug administration, and food was resupplied 4 h post-dose. Male Sprague Dawley rats (Orient Bio Inc., Seongnam, Korea), weighing 194.7 g to 205.4 g, were used in this study. IDP-73152 was administered to rats at a single dose of 2.5, 5, or 10 mg/kg via tail vein injection (the injection volume fixed at 2 mL/kg in saline). […] Blood samples (100 μL) were collected from the jugular vein at 0.167, 0.33, 0.5, 1, 2, 4, and 8 h after the administration. Plasma was separated/collected by centrifugation of the blood samples for 5 min at 10,000× g/4 °C and stored at −80 °C until analysis. When necessary, the biliary and renal excretion of IDP-73152 were studied in bile duct-cannulated rats after the intravenous injection (5 mg/kg) to investigate its route(s) of excretion in rats. Bile and urine samples were collected up to 8 h (i.e., approximately 5 times of the terminal phase half-life) after the administration and the samples were stored at −80 °C until the analysis. The cumulative excretion of the bile and the urine to infinite time was determined by assuming that the excretion was practically completed by the last collection time. When necessary for a model independent PK analysis, a standard moment analysis was carried out with WinNonlin software using either representative (for the study with mice) or individual (for the study with rats, dogs, and humans) concentration–time profile(s). For the calculation of PBPK models, Berkeley Madonna 8.3.18 (Albany, CA, USA) was used with the fourth-order Runge–Kutta method for numerical integration.

[3] = Metabolic stability in liver microsomes, human; assay type: in vitro ADME
Method: as §1

[4] = male, Sprague Dawley, rat, plasma, intravenous, across doses of 2.5, 5, and 10 mg/kg

CC(C)(C)[C@H](NC(=O)[C@H](CC1CCCC1)CN(O)C=O)C(=O)N1CCC(NCc2cc(F)c(F)cc2F)CC1 [IDP-73152]
CLhep predicted at 1 μM ([1]; rat, liver microsomes, pH 7.4, rats, read-out: CLh calculated from the CLint,mic (converted)): 28.2 mL/min/kg
microsomal CLint at 1 μM ([1]; rat, pH 7.4, rats liver microsomes 0.5 mg/mL, 1 μM, read-out: CLint,mic): 72 ± 2.6 µL/min/mg
hepatic ER (extraction ratio) ([1]; rats, from microsomal clearance, well-stirred model): 0.222 ± 0.006
CLu,int,H ([1]; rats, scaled up to the whole liver from microsomes): 7.46 ± 0.27 L/h
AUC(0-inf) ([2]; male, Sprague Dawley, rat, plasma, intravenous 2.5 mg/kg, read-out: Observed AUCinf): 1320 ± 130 ng·h/mL
AUC(0-inf) ([2]; male, Sprague Dawley, rat, plasma, intravenous 5 mg/kg, read-out: Observed AUCinf): 3270 ± 1820 ng·h/mL
AUC(0-inf) ([2]; male, Sprague Dawley, rat, plasma, intravenous 10 mg/kg, read-out: AUCinf): 5030 ± 380 ng·h/mL
half-life ([2]; male, Sprague Dawley, rat, plasma, intravenous 10 mg/kg, read-out: t1/2 (converted)): 85.8 ± 6.6 min
Vd ([2]; male, Sprague Dawley, rat, plasma, intravenous 10 mg/kg, moment analysis): 2.54 ± 0.26 L/kg
clearance ([2]; male, Sprague Dawley, rat, plasma, intravenous 10 mg/kg): ~33.3 mL/min/kg
clearance [2, 4]: 30.8 to 33.3 mL/min/kg
Vd [2, 4]: 2.45 to 2.78 L/kg
Cmax ([2]; male, Sprague Dawley, rat, plasma, oral 20 mg/kg): 1650 ± 440 ng/mL
bioavailability ([2]; male, Sprague Dawley, rat, plasma, oral 20 mg/kg vs intravenous 10 mg/kg, read-out: F (bioavailability)): 55.3%
AUC(0-inf) ([2]; male, Sprague Dawley, rat, plasma, oral 20 mg/kg, read-out: AUCinf): 5570 ± 1590 ng·h/mL
half-life ([2]; male, Sprague Dawley, rat, plasma, oral 20 mg/kg, read-out: t1/2 (terminal phase half-life) (converted)): 178 ± 84 min
Tmax ([2]; male, Sprague Dawley, rat, plasma, po, oral 20 mg/kg, read-out: Tmax): 40 min
Tmax ([2]; oral 20 mg/kg): 38.3 ± 17.4 min
CLhep predicted at 1 μM ([3]; human, liver microsomes, pH 7.4, humans, from microsomal stability data, well-stirred liver model, read-out: CLp expected in humans (converted)): ~3.17 mL/min/kg
microsomal CLint at 1 μM ([3]; human, microsomes, pH 7.4): 31.8 ± 2.2 µL/min/mg
hepatic ER (extraction ratio) ([3]; humans, from microsomal clearance, well-stirred model): 0.159 ± 0.009
CLu,int,H ([3]; humans, scaled up to the whole liver from microsomes): 206 ± 14 L/h

Reference: PMC9227536, “Prediction of Pharmacokinetics of IDP-73152 in Humans Using Physiologically-Based Pharmacokinetics” (Pharmaceutics, 2022)
